Data reported in US8933106B2, “2-(4-substituted phenylamino) polysubstituted pyridine compounds as inhibitors of non-nucleoside HIV reverse transcriptase, preparation methods and uses thereof” (Institute of Pharmacology and Toxicology Academy of …, priority 2008, dated 2015).
Converted amounts (≈) assume the structure as drawn.

How the values were obtained:
Type in all cases: cell-based
HIV virus (IIIB) = assay: Anti-HIV activity test (H9 cell model), P24 antigen ELISA; conditions: for SI(CC50/EC50): H9 cells, ratio of toxicity CC50 value to activity EC50 value; for EC50: Human immunodeficiency virus 1, 96 h, H9 cells infected with HIV (IIIB), 4 days, P24 antigen
Method: (§1) Please refer to the document (J. Med. Chem. 2004, 47, 756-760). Lymphocytes H9 were cultivated in culture medium 1640, under the conditions of 5% CO2, 37° C. The test compound was initially dissolved in DMSO, and then diluted with culture medium to conventional screening concentrations: 100, 20, 4, 0.8 μg/mL. The cultivated H9 cells were divided into two portions, one of which was infected with HIV virus (IIIB) (m.i.o. 0.1-0.01 infectious Units/cell), and used for the determination of activity. Another portion of the cells, in which no virus, but merely culture medium was added, was used for the determination of toxicity. After having been cultivated under completely the same conditions (37° C., 5% CO2) for 4 h, the two portions of cells were washed with fresh culture medium for 3 times, and then respectively added to different concentrations of test samples as formulated or to blank culture medium (the latter is positive infection control or negative drug control), while using AZT as positive drug control. All of these cells were cultivated under the conditions of 5% CO2, 37° C. for 4 days. On the 4th day, the cell membranes of the cells infected with virus were firstly removed, and the cytosol was tested by using P24 antigen ELISA assay to determine the activity of the samples, which was expressed as EC50. EC50 meant an effective concentration at which 50% of virus replication was inhibited. The portion of cells in which no virus was added was tested by using cytometry to determine the toxicity of the samples, which was expressed as CC50. CC50 meant a concentration at which 50% of living cells were killed.

[1] = Toxicity in uninfected H9 cells; conditions: human, uninfected H9 lymphocytes, no virus
Method: as §1, with “All of these cells were cultivated under the conditions of 5% CO2, 37° C. for 4 days.” left out, “EC50 meant an effective concentration at which 50% of virus replication was inhibited.” left out, “CC50 meant a concentration at which 50% of living cells were killed.” left out

HIV-1IIIB virus strain = assay: Anti-HIV activity test (MT-2 cell model), p24 antigen ELISA; conditions: MT-2 cells; for EC50: Human immunodeficiency virus 1, MT2, HIV-1IIIB, 4th day, p24 antigen; for SI(CC50/EC50): ratio of toxicity CC50 value to activity EC50 value
Method: Please refer to the document (Jiang, S., et al. Antimicrob. Agents Chemother. 2004, 48, 4349-4359). In a 96-pore cell culture plate, 50 μl of different concentrations of compound solutions were respectively mixed with equal-volume of HIV-1IIIB virus strain (100 TCID50), and incubated at 37° C. for 30 min, and then 100 μl MT-2 cell (1×10^5/mL, RPIM 1640 culture medium containing 10% serum) was added, and mixed homogenously, followed by incubation at 37° C. overnight. On the second day, 150 μl of the supernatant was sucked out, and equal-volume of fresh culture medium was replenished, followed by further incubation at 37° C. for 3 days. On the 4th day, cytopathic effect (CPE) was recorded. Thereafter, 100 μl of culture supernatant was sucked out, virus particles were split using 5% Triton X-100, and p24 antigen therein was tested by using ELISA assay. Briefly, a ELISA plate was coated with HIVIG (2 μg/mL), and blocked with 1% fat-free milk, then a virus lysate was added therein, followed by incubation at 37° C. for 60 min. After fully washing the plate, anti-p24 monoclonal antibody-183-12H-5C, biotin-labeled goat antimouse antibody and […]-labeled horseradish peroxidase were added in sequence. Then, after developing with TMB, OD was tested at 450 nm. The 50% effective concentration (EC50) of the compound was calculated using CalcuSyn software.

[2] = Cytotoxicity test of the compound (MT-2 cells, XTT); conditions: human, 4th day
Method: Please refer to the document (Jiang, S., et al. Antimicrob. Agents Chemother. 2004, 48, 4349-4359). In a 96-pore cell culture plate, 50 μl of different concentrations of compound solutions were respectively mixed with equal-volume of PBS, and incubated at 37° C. for 30 min, and then 100 μl MT-2 (or H9) cells (1×10^5/mL, RPIM 1640 culture medium containing 10% serum) was added, and mixed homogenously, followed by incubation at 37° C. overnight. On the second day, 150 μl of the supernatant was sucked out, and equal-volume of fresh culture medium was replenished, followed by further incubation at 37° C. for 3 days. On the 4th day, 50 μl of a XTT solution (1 mg/mL) containing PMS as freshly prepared was added. After 4 h, OD at 450 nm was tested. The 50% cytotoxicity concentration (CC50) of the compound was calculated using CalcuSyn software.

EC50 (HIV virus (IIIB)) | EC50 (HIV-1IIIB virus strain) | SMILES | SI(CC50/EC50) (HIV virus (IIIB)) | CC50 at 4 days [1] | SI(CC50/EC50) (HIV-1IIIB virus strain) | CC50 at 4 days [2]
< 0.025 µg/mL | 0.52 µg/mL (≈ 1.18 µM) | Cc1cc(Br)cc(C)c1Oc1ccc([N+](=O)[O-])c(Nc2ccc(C#N)cc2)n1 [Compound I-1, 2-(4-cyanophenylamino)-6-(2,6-dimethyl-4-bromophenoxy)-3-nitropyridine] | >774 | 19.4 µg/mL (≈ 44.1 µM) | 62 | 32.2 µg/mL (≈ 73.4 µM)
0.0025 µg/mL (≈ 0.00649 µM) | 0.052 µg/mL (≈ 0.135 µM) | Cc1cc(C#N)cc(C)c1Oc1ccc([N+](=O)[O-])c(Nc2ccc(C#N)cc2)n1 [Compound I-2, 2-(4-cyanophenylamino)-6-(2,6-dimethyl-4-cyanophenoxy)-3-nitropyridine] | >10,000 | > 25 µg/mL | 371 | 19.3 µg/mL (≈ 50.1 µM)
